Measured values reported in patent US11807693B2 (priority 2014, dated 2023).
Where two headings read alike, the source gives them in different places. Starred links: 1 amine or outer side, 2 acyl side, 3 side chain; linkers in the order of their positions; H or OH if unused. Non-standard residues stand in square brackets, D forms with d. Residues, ends and D or L forms follow the SMILES beside them. *: point of attachment. Oic = O=C(O)[C@@H]1C[C@@H]2CCCC[C@@H]2N1; Phe(4-Cl) = N[C@@H](Cc1ccc(Cl)cc1)C(=O)O; γGlu = O=C(O)[C@H](CCC(=O)[*:2])N[*:1]; d(β3hF) = N[C@@H](CC(=O)O)Cc1ccccc1; Igl = N[C@H](C(=O)O)C1Cc2ccccc2C1; NMeR = CN[C@@H](CCCNC(=N)N)C(=O)O; Palmitoyl = CCCCCCCCCCCCCCCC(=O)*; Tridecanoyl = CCCCCCCCCCCCC(=O)*; Cha = N[C@@H](CC1CCCCC1)C(=O)O; αMeL = CC(C)C[C@](C)(N)C(=O)O; αMeOrn = C[C@](N)(CCCN)C(=O)O; Tle = CC(C)(C)[C@H](N)C(=O)O; β3hL = CC(C)C[C@H](N)CC(=O)O; αMeP = C[C@@]1(C(=O)O)CCCN1; β3hP = O=C(O)C[C@@H]1CCCN1; Pip = O=C(O)[C@@H]1CCCCN1; Nle = CCCC[C@H](N)C(=O)O; Orn = NCCC[C@H](N)C(=O)O; AEEA = NCCOCCOCC(=O)O; Aib = CC(C)(N)C(=O)O

Columns and labels:
rat APJ receptor = biological target: T1, rat APJ receptor (Rattus norvegicus, UniProt Q9JHG3); assay: [35S] GTPγS assay, rat APJ receptor; format: biochemical
T1 construct: expressed in transfected cells
T1 sequence (Q9JHG3 1-377): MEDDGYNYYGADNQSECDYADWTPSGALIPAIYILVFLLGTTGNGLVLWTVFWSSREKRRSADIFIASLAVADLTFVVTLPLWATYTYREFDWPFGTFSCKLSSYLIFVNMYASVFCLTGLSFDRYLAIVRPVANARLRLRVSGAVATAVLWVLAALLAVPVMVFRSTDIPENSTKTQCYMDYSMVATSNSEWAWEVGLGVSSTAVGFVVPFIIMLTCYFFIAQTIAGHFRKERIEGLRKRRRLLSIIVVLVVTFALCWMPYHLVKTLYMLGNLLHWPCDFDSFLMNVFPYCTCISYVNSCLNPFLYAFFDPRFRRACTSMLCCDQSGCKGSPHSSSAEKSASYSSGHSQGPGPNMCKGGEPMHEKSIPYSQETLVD
Description: The membranes were incubated with modified peptides in the assay buffer. […] Bound [^35S] GTPγS was separated from free radiolabel by filtration. The filter bound radioactivity was determined by liquid scintillation counting.

human APJ receptor = biological target: T2, human APJ receptor (Homo sapiens, UniProt P35414); assay: [35S] GTPγS assay, human APJ receptor; format: biochemical
T2 construct: expressed in transfected cells
T2 sequence (P35414 1-380): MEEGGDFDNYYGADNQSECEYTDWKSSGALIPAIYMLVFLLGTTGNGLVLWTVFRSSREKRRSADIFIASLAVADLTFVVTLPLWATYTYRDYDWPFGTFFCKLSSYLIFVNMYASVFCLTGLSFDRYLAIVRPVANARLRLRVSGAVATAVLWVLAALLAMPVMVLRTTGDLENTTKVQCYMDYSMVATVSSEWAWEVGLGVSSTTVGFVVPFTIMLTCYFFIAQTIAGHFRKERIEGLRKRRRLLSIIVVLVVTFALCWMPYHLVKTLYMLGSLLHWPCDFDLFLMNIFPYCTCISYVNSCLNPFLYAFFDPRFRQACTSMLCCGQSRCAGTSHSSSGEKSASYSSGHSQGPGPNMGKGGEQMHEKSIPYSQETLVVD

[1] = In vitro stability in rat liver homogenate; format: in vitro ADME; conditions: tissue homogenate
How it was run: (§1)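 Stability was followed for 4 hr at 37° C. after spiking peptides (5 μM final) into rat plasma and tissue homogenates. Methanol quench with internal standard preceded high resolution LC-MS.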

[2] = In vitro stability in rat plasma; format: in vitro ADME
How it was run: as §1

[3] = rat APJ receptor, read-out: EC50 Rat APJ Receptor
[4] = Table 16, read-out: EC50 Rat APJ Receptor

Row | EC50 (human APJ receptor; human APJ receptor) [nM] | EC50 (human APJ receptor; Table 16) [nM] | SMILES | also measured
1 | 2.47 |  | CCCCCCCCCCCCCCCC(=O)N[C@@H](CCC(=O)NCCOCCOCC(=O)NCCOCCOCC(=O)N[C@H](CCC(N)=O)C(=O)N[C@@H](CCCNC(=N)N)C(=O)N1CCC[C@H]1C(=O)N(C)[C@@H](CCCNC(=N)N)C(=O)N[C@@H](CC1CCCCC1)C(=O)N[C@@H](CO)C(=O)N[C@@H](Cc1c[nH]cn1)C(=O)N[C@@H](CCCN)C(=O)NCC(=O)N1[C@H](C(=O)N[C@@H](CCCC)C(=O)N2CCC[C@H]2CC(=O)N[C@@H](CC(=O)O)Cc2ccccc2)C[C@@H]2CCCC[C@@H]21)C(=O)O [compound 618] ({Palmitoyl-γGlu-AEEA-AEEA}-[dQ]RP[NMeR][Cha]SH[Orn]G[Oic][Nle][β3hP][d(β3hF)]-OH) | EC50 (rat APJ receptor; [3]): 11.1 nM
2 |  | 0.171 | CCCCCCCCCCCCC(=O)N[C@@H](CCC(=O)NCCOCCOCC(=O)NCCOCCOCC(=O)N[C@@H](CCC(N)=O)C(=O)N[C@@H](CCCNC(=N)N)C(=O)N1CCC[C@H]1C(=O)N1CCC[C@H]1C(=O)N[C@@H](CC(C)C)C(=O)N[C@@H](CO)C(=O)N[C@@H](Cc1c[nH]cn1)C(=O)N[C@@H](CCCCN)C(=O)NCC(=O)N1CCC[C@H]1C(=O)N[C@@H](CCCC)C(=O)N1CCC[C@H]1C(=O)N[C@@H](Cc1ccc(Cl)cc1)C(=O)O)C(=O)O [compound 427] ({Tridecanoyl-γGlu-AEEA-AEEA}-QRPPLSHKGP[Nle]P[Phe(4-Cl)]-OH) | EC50 (rat APJ receptor; [4]): 0.313 nM
3 |  | 0.235 | CCCCCCCCCCCCC(=O)N[C@@H](CCC(=O)NCCOCCOCC(=O)NCCOCCOCC(=O)N[C@H](CCC(N)=O)C(=O)N[C@@H](CCCNC(=N)N)C(=O)N1CCC[C@H]1C(=O)N(C)[C@@H](CCCNC(=N)N)C(=O)N[C@@H](CC1CCCCC1)C(=O)N[C@@H](CO)C(=O)N[C@@H](Cc1c[nH]cn1)C(=O)N[C@@H](CCCCN)C(=O)NCC(=O)N1CCC[C@@]1(C)C(=O)N[C@@H](CCCC)C(=O)N[C@@H](Cc1ccc(Cl)cc1)C(=O)O)C(=O)O [compound 551] ({Tridecanoyl-γGlu-AEEA-AEEA}-[dQ]RP[NMeR][Cha]SHKG[αMeP][Nle][Phe(4-Cl)]-OH) | EC50 (rat APJ receptor; [4]): 1.15 nM
4 | 0.0934 |  | CCCCCCCCCCCCC(=O)N[C@@H](CCC(=O)NCCOCCOCC(=O)NCCOCCOCC(=O)N[C@H](CC(=O)N[C@@H](CCCNC(=N)N)C(=O)N1CCC[C@H]1C(=O)N(C)[C@@H](CCCNC(=N)N)C(=O)N[C@@H](CC(C)C)C(=O)N[C@@H](CO)C(=O)N[C@@H](Cc1c[nH]cn1)C(=O)N[C@@H](CCCCN)C(=O)NCC(=O)N1CCC[C@H]1C(=O)N[C@@H](CCCC)C(=O)N1CCC[C@H]1C(=O)N[C@@H](Cc1ccc(Cl)cc1)C(=O)O)CC(C)C)C(=O)O [compound 421] ({Tridecanoyl-γGlu-AEEA-AEEA}-[β3hL]RP[NMeR]LSHKGP[Nle]P[Phe(4-Cl)]-OH) | EC50 (rat APJ receptor; [3]): 0.286 nM
5 |  | 0.0229 | CCCCCCCCCCCCC(=O)N[C@@H](CCC(=O)NCCOCCOCC(=O)NCCOCCOCC(=O)N[C@@H](CCC(N)=O)C(=O)N[C@@H](CCCNC(=N)N)C(=O)N1CCC[C@H]1C(=O)N(C)[C@@H](CCCCNC(=N)N)C(=O)N[C@@H](CC(C)C)C(=O)N[C@@H](CO)C(=O)N[C@@H](Cc1c[nH]cn1)C(=O)N[C@@H](CCCCN)C(=O)NCC(=O)N1CCC[C@H]1C(=O)N[C@@H](CCCC)C(=O)N1CCC[C@H]1C(=O)N[C@@H](Cc1ccc2ccccc2c1)C(=O)O)C(=O)O [compound 471] | remaining at 4 h, 5 μM [1]: < 1%; remaining at 4 h, 5 μM [2]: 52%
6 | 11.1 |  | CCCCCCCCCCCCCCCC(=O)N[C@@H](CCC(=O)NCCOCCOCC(=O)NCCOCCOCC(=O)N[C@H](CCC(N)=O)C(=O)N[C@@H](CCCNC(=N)N)C(=O)N1CCC[C@H]1C(=O)N(C)[C@@H](CCCNC(=N)N)C(=O)N[C@@H](CC1CCCCC1)C(=O)N[C@@H](CO)C(=O)N[C@@H](Cc1c[nH]cn1)C(=O)N[C@H](C(=O)NCC(=O)N1[C@H](C(=O)N[C@@H](CCCC)C(=O)N2CCC[C@H]2CC(=O)N[C@@H](CC(=O)O)Cc2ccccc2)C[C@@H]2CCCC[C@@H]21)C1Cc2ccccc2C1)C(=O)O [compound 625] ({Palmitoyl-γGlu-AEEA-AEEA}-[dQ]RP[NMeR][Cha]SH[Igl]G[Oic][Nle][β3hP][d(β3hF)]-OH) | EC50 (rat APJ receptor; [3]): 20.1 nM
7 | 1.52 |  | CCCCCCCCCCCCCCCC(=O)N[C@@H](CCC(=O)NCCOCCOCC(=O)NCCOCCOCC(=O)N[C@H](CCC(N)=O)C(=O)N[C@@H](CCCNC(=N)N)C(=O)N1CCC[C@H]1C(=O)N(C)[C@@H](CCCNC(=N)N)C(=O)N[C@@H](CC1CCCCC1)C(=O)N[C@@H](CO)C(=O)N[C@@H](Cc1c[nH]cn1)C(=O)N[C@@H](CCCCN)C(=O)NCC(=O)N1CCCC[C@H]1C(=O)N[C@@H](CCCC)C(=O)N1CCCC(C(=O)N[C@@H](Cc2ccc(Cl)cc2)C(=O)O)C1)C(=O)O (single isomer, unassigned) [compound 588] | remaining at 4 h, 5 μM [2]: > 90%
8 |  | 0.192 | CCCCCCCCCCCCC(=O)N[C@@H](CCC(=O)NCCOCCOCC(=O)NCCOCCOCC(=O)N[C@@H](CCC(N)=O)C(=O)N[C@@H](CCCNC(=N)N)C(=O)N1CCC[C@H]1C(=O)N(C)[C@@H](CCCNC(=N)N)C(=O)N[C@@H](CC1CCCCC1)C(=O)N[C@@H](CO)C(=O)N[C@@H](Cc1c[nH]cn1)C(=O)N[C@@H](CCCCN)C(=O)NCC(=O)N1CCCC[C@H]1C(=O)N[C@@H](CCCC)C(=O)N1CCC[C@H]1C(=O)N[C@@H](Cc1ccc(Cl)cc1)C(=O)O)C(=O)O [compound 416] ({Tridecanoyl-γGlu-AEEA-AEEA}-QRP[NMeR][Cha]SHKG[Pip][Nle]P[Phe(4-Cl)]-OH) | remaining at 4 h, 5 μM [2]: 57.7%
9 | 1.62 |  | CCCCCCCCCCCCCCCC(=O)N[C@@H](CCC(=O)NCCOCCOCC(=O)NCCOCCOCC(=O)N[C@H](CCC(N)=O)C(=O)N[C@@H](CCCNC(=N)N)C(=O)N1CCC[C@H]1C(=O)N(C)[C@@H](CCCNC(=N)N)C(=O)N[C@@](C)(CC(C)C)C(=O)N[C@@H](CO)C(=O)N[C@@H](Cc1c[nH]cn1)C(=O)N[C@@](C)(CCCN)C(=O)NCC(=O)N1[C@H](C(=O)N[C@@H](CCCC)C(=O)N2CCC[C@H]2CC(=O)N[C@@H](Cc2ccc(Cl)cc2)C(=O)O)C[C@@H]2CCCC[C@@H]21)C(=O)O [compound 635] ({Palmitoyl-γGlu-AEEA-AEEA}-[dQ]RP[NMeR][αMeL]SH[αMeOrn]G[Oic][Nle][β3hP][Phe(4-Cl)]-OH) | 
10 |  | 159 | CCCCCCCCCCCCC(=O)N[C@@H](CCC(=O)NCCOCCOCC(=O)NCCOCCOCC(=O)N[C@H](CCC(N)=O)C(=O)N[C@H](CCC(=O)O)C(=O)N1CCC[C@H]1C(=O)N(C)[C@@H](CCCNC(=N)N)C(=O)N[C@@H](CC1CCCCC1)C(=O)N[C@@H](CO)C(=O)N[C@@H](Cc1c[nH]cn1)C(=O)N[C@@H](CCCCN)C(=O)NCC(=O)N1[C@H](C(=O)N[C@@H](CCCC)C(=O)NC(C)(C)C(=O)N[C@@H](Cc2ccc(Cl)cc2)C(=O)O)C[C@@H]2CCCC[C@@H]21)C(=O)O [compound 525] ({Tridecanoyl-γGlu-AEEA-AEEA}-[dQ][dE]P[NMeR][Cha]SHKG[Oic][Nle][Aib][Phe(4-Cl)]-OH) | 
11 |  | 1.49 | CCCCCCCCCCCCC(=O)N[C@@H](CCC(=O)NCCOCCOCC(=O)NCCOCCOCC(=O)N[C@@H](CCC(N)=O)C(=O)N[C@@H](CCCNC(=N)N)C(=O)N1CCC[C@H]1C(=O)N(C)[C@@H](CCCNC(=N)N)C(=O)N[C@@H](CC1CCCCC1)C(=O)N[C@@H](CO)C(=O)N[C@H](C(=O)N[C@@H](CCCCN)C(=O)NCC(=O)N1[C@H](C(=O)N[C@@H](CCCC)C(=O)N2CCC[C@H]2C(=O)N[C@@H](Cc2ccc(Cl)cc2)C(=O)O)C[C@@H]2CCCC[C@@H]21)C(C)(C)C)C(=O)O [compound 438] ({Tridecanoyl-γGlu-AEEA-AEEA}-QRP[NMeR][Cha]S[Tle]KG[Oic][Nle]P[Phe(4-Cl)]-OH) | 
